Reference: patent US7220732B2, “Compounds useful as photodynamic therapeutic agents” (priority 2002, dated 2007)
pEC50: −log10 of the molar value. Like-named read-outs stand apart in the source and are kept apart here.

Assays:
[1] = Fluorescence emission and fluorescence quantum yield; format: physicochemical; settings: for Φf (fluorescence quantum yield): relative to magnesium tetra-tert-butylphthalocyanine in CHCl3, room temperature
Excerpt: (§1) The absorption bands of each photosensitiser are relatively insensitive to solvent changes with solutions in water/Cremophor resulting in a further bathochromic shift of ˜10 nm (Table 1). Excitation of chloroform solutions of the 2a and 4a at 635 nm gave a fluorescence band at 672 and 673 nm respectively (FIG. 2, Table 2). […] The reduction in fluorescence quantum yield in the series would imply more efficient population of the triplet excited state which would benefit singlet oxygen production. The ability of 2 and 4 to produce singlet oxygen would be a prerequisite to them being potential PDT agents.

HeLa cells = experiment: Light/dark cytotoxicity study (MTT) in HeLa cells; format: cell-based
Procedure: (§2) MRC5 and HeLa cell cultures were maintained in MEM (minimum essential medium) containing 10% (v/v) foetal calf serum (FCS), 1% (v/v) non-essential amino acids, 2 μg/ml Fungizone (Trade Mark) (amphotericin B), 50 μg/ml penicillin, 50 μg/ml streptomycin, 20 mM HEPES and 1% (v/v) L-Glutamine. Cells were passaged at least twice before use in the cytotoxicity assays.
(§3) Stock haematoporphyrin water-dimethyl sulphoxide (DMSO) (100:1 (v/v)) solutions were diluted with MEM containing 10% FCS. Cells were seeded at 5,000 cells/well in 96-well plates and incubated for 24 hr at 37° C. The 24 hour incubation period was chosen having regard to the slower uptake of haernatoporphyrin in the absence of Cremophor, when compared to the compounds of the present invention in the presence of Cremophor (see below). Cells were then incubated with haematoporphyrin in the dark for 24 hr at 37° C. The haematoporphyrin laden culture medium was then removed by filtration, the cells were washed with PBS and fresh culture medium was added to each well. A 500 W light source, passed through a red glass and water filter barrier, (to ensure cells are irradiated with light of wavelength greater than 570 nm) was used to irradiate the plates for both 15 and 30 min. Following irradiation, the cells were incubated for a further 48 hr at 37° C. before being assessed for cell survival.
(§4) Stock 2a or 2b water-Cremophor EL (Trade Mark—CAS 61791-12-6) (1:250 (v/v)) solutions were diluted with MEM containing 10% FCS. Cells were seeded at 5,000 cells/well in 96-well plates and incubated for 24 hr at 37° C. Cells were then incubated with 2a or 2b in the dark for 3 hr at 37° C. The 3 hour incubation period was chosen to reflect the faster cellular uptake of 2a or 2b in the presence of Cremophor, when compared to the cellular uptake of haematoporphyrins in the absence of Cremophor. The 2a or 2b laden culture medium was then removed by filtration, the cells were washed with PBS and fresh culture medium was added to each well. The plates were then irradiated using a 500 W light source passed through a red glass and water filter barrier, (thereby ensuring cells are irradiated with light of wavelength greater than 570 nm) for both 15 and 30 min.
(§5) Following irradiation, the cells were incubated for a further 48 hr at 37° C. before being assessed for cell survival. The dark toxicity of compounds of the present invention was also assessed in each experiment.
(§6) Cell viability was estimated using the standard MTT (microtiter tetrazolium) assay. This assay measures mitochondrial dehydrogenase activity and is based on the reduction of a soluble yellow tetrazolium salt to a blue, insoluble MTT formazan product by this enzyme. The subsequent colour change produced by viable cells was quantified using a plate reader (VICTOR^2 1420 multilabel HTS counter, Wallac). As mentioned above under the headings “Cytotoxicity”, the cells are incubated at 37° C. for 48 hours, following which the MTT solution was added to the cells at a final concentration of 0.5 mg/ml and incubated for 3 hr at 37° C. The MTT solution was then removed by filtration and 100 μl DMSO was added to each well in order to lyse the cells and release the formazan dye. The plates were read 1 hr later at 540 nm.
(§7) Prism (Trade Mark) […] was used to graph the data obtained from the MTT assays and the uptake/efflux experiments. This programme allows non-linear regression analysis and the generation of sigmoidal dose response curves. Prism (Trade Mark) also automatically calculates EC50 values.
(§8) Light toxicity assays were also carried out as described above under “Assay methods” in HeLa and MRC5 cells for haematoporphyrin (FIGS. 9 and 10), 2a (FIGS. 11 and 12) and 2b (FIGS. 13 and 14).

[2] = Spectroscopic absorbance properties; format: physicochemical
Excerpt: as §1

MRC5 cells = experiment: Light/dark cytotoxicity study (MTT) in MRC5 cells; format: cell-based
Procedure: as §2, §3, §4, §5, §6, §7, §8

[3] = CHCl3, room temperature, excitation at 635 nm
[4] = Water/Cremophor (100:1), room temperature

Row | Structure (SMILES) | λ em (fluorescence band) [1, 3] | λ em (fluorescence band) [1, 4] | Φf (fluorescence quantum yield) [1] | pEC50 (HeLa cells; 0 J/cm^2 light (no light), read-out: EC50 (dark toxicity)) | pEC50 (HeLa cells; 8 J/cm^2 light (15 mins from a 500 W light source), read-out: EC50) | pEC50 (HeLa cells; 16 J/cm^2 light (30 mins from a 500 W light source), read-out: EC50) | fwhm (full width at half maximum) ([2]; CHCl3, room temperature) | ε (molar extinction coefficient) ([2]; CHCl3, room temperature) | λmax (absorbance) ([2]; CHCl3, room temperature) | fwhm (full width at half maximum) [2, 4] | λmax (absorbance) [2, 4] | EC50 (dark toxicity) (MRC5 cells; MRC5, 0 J/cm^2 light (no light)) | pEC50 (MRC5 cells; MRC5, 8 J/cm^2 light (15 mins from a 500 W light source), read-out: EC50) | pEC50 (MRC5 cells; MRC5, 16 J/cm^2 light (30 mins from a 500 W light source), read-out: EC50) | pEC50 (HeLa cells; Homo sapiens, light or radiation study, 0 J/cm^2 light (no light), read-out: EC50 (dark toxicity)) | pEC50 (HeLa cells; Homo sapiens, light or radiation study, 0.25 h, 8 J/cm^2 light (15 mins from a 500 W light source), read-out: EC50) | pEC50 (HeLa cells; Homo sapiens, light or radiation study, 0.5 h, 16 J/cm^2 light (30 mins from a 500 W light source), read-out: EC50) | pEC50 (MRC5 cells; Homo sapiens, light or radiation study, 0.25 h, MRC5, 8 J/cm^2 light (15 mins from a 500 W light source), read-out: EC50) | pEC50 (MRC5 cells; Homo sapiens, light or radiation study, 0.5 h, MRC5, 16 J/cm^2 light (30 mins from a 500 W light source), read-out: EC50) | pEC50 (MRC5 cells; Homo sapiens, light or radiation study, MRC5, 0 J/cm^2 light (no light), read-out: EC50 (dark toxicity))
1 | COc1ccc(C2=[N+]3C(=Nc4c(-c5ccccc5)cc(-c5ccc(OC)cc5)n4[B-]3(F)F)C(c3ccccc3)=C2)cc1 [Compound 2b] | 715 nm | 727 nm | 0.36 | 4.21 | 4.28 | 4.60 | 55 nm | 85,000 M^−1cm^−1 | 688 nm | 57 nm | 696 nm | un-measurable | 3.66 | 4.66 |  |  |  |  |  | 
2 | F[B-]1(F)n2c(c(-c3ccccc3)c(Br)c2-c2ccccc2)N=C2C(c3ccccc3)=C(Br)C(c3ccccc3)=[N+]21 [Compound 4a] | 673 nm | 679 nm | 0.012 |  |  |  | 47 nm | 79,000 M^−1cm^−1 | 650 nm | 57 nm | 651 nm |  |  |  |  |  |  |  |  | 
3 | COc1ccc(C2=[N+]3C(=Nc4c(-c5ccccc5)c(Br)c(-c5ccc(OC)cc5)n4[B-]3(F)F)C(c3ccccc3)=C2Br)cc1 [Compound 4b] | 714 nm | 719 nm | 0.10 |  |  |  | 57 nm | 75,000 M^−1cm^−1 | 679 nm | 86 nm | 685 nm |  |  |  |  |  |  |  |  | 
4 | F[B-]1(F)n2c(-c3ccccc3)cc(-c3ccc(Br)cc3)c2N=C2C(c3ccc(Br)cc3)=CC(c3ccccc3)=[N+]21 [Compound 5a] | 680 nm |  |  |  |  |  |  | 74,000 M^−1cm^−1 | 658 nm |  | 667 nm |  |  |  |  |  |  |  |  | 
5 | CC1=C(CCC(=O)O)c2cc3[nH]c(cc4nc(cc5[nH]c(cc1n2)c(C)c5C(C)O)C(C)=C4C(C)O)c(C)c3CCC(=O)O (stereo not shown) [haematoporphyrin, reference compound] |  |  |  |  |  |  |  |  |  |  |  |  |  |  | 4.11 | 4.82 | 4.80 | 4.38 | 4.54 | 2.85
